From patent US8877785B2, “Methods and compositions for enhancing sensitivity of cytotoxic drugs with timely combinatorial therapy with carboxyamidotriazole orotate” (Tactical Therapeutics Inc, priority 2009, dated 2014)

Key:
[1] = tested on: human LOX IMVI melanoma xenografts; test: Antitumor activity against SC-implanted human LOX IMVI melanoma xenografts (experiment TTI-6A); type: in vivo, mice
Text: The purpose of the experiment TTI-6A was to evaluate the antitumor activity of CTO when administered in combination with temozolomide against subcutaneously (SC)-implanted human LOX IMVI melanoma xenografts in female, athymic NCr-nu/nu mice. Female six-week-old athymic NCr-nu/nu mice were purchased from Charles River Laboratories (Wilmington, Mass.). Human LOX IMVI melanoma cells were maintained as an ascites passage. […] The day of tumor fragment implantation was designated as Day 0.
(§1) CTO was administered to mice by exact individual animal's body weight on each day of treatment, with the injection volume being 0.1 mL/10 g body weight. temozolomide dosing formulations were administered to mice within 30 minutes of formulation by exact individual body weight on each day of treatment, with the injection volume being 0.2 mL/10 g body weight.
The study consisted of nine groups of ten mice per group. Animals in Group 1 were treated with the CTO vehicle (40% PEG 400 in deionized water) on a Q1Dx14 schedule (Days 6-19) in combination with the temozolomide vehicle (0.3% Klucel in saline), which was administered on a Q4Dx3 schedule (Days 6, 10, and 14). Animals in Groups 2 and 3 were treated with CTO at doses of 513 and 342 mg/kg/dose, respectively, on a Q1Dx14 schedule. Animals in Groups 4 and 5 were treated with temozolomide at, doses of 90 and 60 mg/kg/dose, respectively, on a Q4Dx3 schedule. Animals in Groups 6 and 7 were treated with CTO on a Q1Dx14 schedule at doses of 513 and 342 mg/kg/dose, respectively, in combination with temozolomide which was administered at a dose of 90 mg/kg/dose on a Q4Dx3 schedule. Animals in Groups 8 and 9 were treated with CTO on a Q1Dx14 schedule at doses of 513 and 342 mg/kg/dose, respectively, in combination with temozolomide which was administered at a dose of 60 mg/kg/dose on a Q4Dx3 schedule.
The SC tumors were measured and the animals were weighed two times a week. Tumor volume was determined by the formula for an ellipsoid sphere: L×W^2/2=mm^3, where L and W refer to the larger and smaller perpendicular dimensions collected at each measurement. The experiment was terminated on Day 35.
Parameters Evaluated—Number of nonspecific deaths, number of complete tumor regressions, number of tumor-free survivors on Day 35, and the median time for the tumors to reach four tumor mass doublings were determined. Comparison of the median tumor weight in the treatment groups to the median tumor weight in the control group (T/C×100%) on Day 19 (the last day of treatment with CTO and the last day of data collection when mice in the control group were still alive) was used for an additional evaluation of the antitumor efficacy of the combination treatments. […] FIG. 1.

[2] = given in combination (CTO Q1Dx14, temozolomide Q4Dx3); MTD = dose without death and no more than 20% mean body weight loss
Text: The purpose of the first experiment was to evaluate the tolerance of female athymic NCr-nu/nu mice to the combination treatment of 5-amino-1-(4-(4-chlorobenzoyl)-3,5-dichlorobenzyl)-1,2,3-triazole-4-carboxyamide orotate (CTO) and a cytotoxic chemotherapeutic agent selected from the group consisting of temozolomide, 5-FU, methotrexate, doxorubicin and daunorubicin.
Polyethylene glycol (PEG 400, MW 400) was purchased from Aldrich Chemistry. Deionized water was purchased from LabChem, Inc. Klucel (hydroxypropyl cellulose) was purchased from Aldrich. Saline (physiological saline solution, for animal use only) was purchased from Nova-Teck, Inc. Tween 80 (T80, polysorbate 80) was purchased from Fisher Scientific. CTO (MW 580.76) was stored at room temperature protected from light upon receipt. CTO was formulated once a week (on Days 1 and 8) at a concentration of 51.3 mg/mL in 40% PEG 400 in deionized water. Temozolomide® (temozolomide, Schering Co., 20 mg/capsule) was prepared on each day treatment by adding several drops of T80 to the powder, and then adding 0.3% Klucel in saline to yield a concentration of 4.5 mg/mL.
The study consisted of four groups of five mice per group for a total of 25 mice on Day 1. […]

[3] = Body weight loss and deaths in LOX IMVI tumor-bearing athymic NCr-nu/nu mice (experiment TTI-6A); type: in vivo
Text: The purpose of the experiment TTI-6A was to evaluate the antitumor activity of CTO when administered in combination with temozolomide against subcutaneously (SC)-implanted human LOX IMVI melanoma xenografts in female, athymic NCr-nu/nu mice. Female six-week-old athymic NCr-nu/nu mice were purchased from Charles River Laboratories (Wilmington, Mass.). Human LOX IMVI melanoma cells were maintained as an ascites passage. Each mouse was implanted SC near the right flank with one million (1×10^6) of the LOX IMVI human melanoma cell from an in vivo passage using a 23 g needle. The day of tumor fragment implantation was designated as Day 0. Individual tumors of 90 animals grew to 126-198 mg in weight (126-198 mm^3 in size) on Day 6 after tumor implantation (Jul. 20, 2011), the day of treatment initiation. Those animals selected with tumors in the proper size range were assigned to nine treatment groups so that the mean tumor weights in all groups on Day 6 were as close to each other as possible (mean tumor weights being 165 or 166 mg, median tumor weights ranging from 162 to 176 mg).
as §1
The study consisted of nine groups of ten mice per group. […]
The SC tumors were measured and the animals were weighed two times a week. Tumor volume was determined by the formula for an ellipsoid sphere: L×W^2/2=mm^3, where L and W refer to the larger and smaller perpendicular dimensions collected at each measurement. […]
Parameters Evaluated—Number of nonspecific deaths, number of complete tumor regressions, number of tumor-free survivors on Day 35, and the median time for the tumors to reach four tumor mass doublings were determined. […]

[4] = Group 4: temozolomide 90 mg/kg/dose oral Q4Dx3 alone
[5] = Group 5: temozolomide 60 mg/kg/dose oral Q4Dx3 alone

Row | Compound | inhibition of the growth of the human LOX IMVI melanoma xenografts (in words) ([1]; CTO 513 or 342 mg/kg/dose oral for fourteen consecutive days) | median tumor growth delay ([1]; Group 2: CTO 513 mg/kg/dose Q1Dx14 alone) [days] | T/C value (median tumor weight treated/control x100%) on Day 19 ([1]; Group 2: CTO 513 mg/kg/dose oral Q1Dx14 alone) [%] | median tumor growth delay ([1]; Group 3: CTO 342 mg/kg/dose Q1Dx14 alone) [days] | T/C value (median tumor weight treated/control x100%) on Day 19 ([1]; Group 3: CTO 342 mg/kg/dose oral Q1Dx14 alone) [%] | maximum tolerated dose (MTD) [2] | delay in the growth of the median tumor ([1]; Group 4: temozolomide 90 mg/kg/dose Q4Dx3 alone) [days] | T/C value (median tumor weight treated/control x100%) on Day 19 [1, 4] [%] | median time for the tumor to reach four tumor mass doublings [1, 4] [days] | delay in the growth of the median tumor ([1]; Group 5: temozolomide 60 mg/kg/dose Q4Dx3 alone) [days] | T/C value (median tumor weight treated/control x100%) on Day 19 [1, 5] [%] | median time for the tumor to reach four tumor mass doublings [1, 5] [days] | maximum mean body weight loss [3, 4] [%] | maximum mean body weight loss [3, 5] [%] | maximum mean body weight loss ([3]; Groups 4 and 5: temozolomide 90 and 60 mg/kg/dose oral Q4Dx3 alone, both groups) [g]
1 | 5-amino-1-(4-(4-chlorobenzoyl)-3,5-dichlorobenzyl)-1,2,3-triazole-4-carboxyamide orotate [CTO] | measurable inhibition | 3.1 | 65 | 1.6 | 70 | above 513 mg/kg/dose |  |  |  |  |  |  |  |  | 
2 | Cn1nnc2c(C(N)=O)ncn2c1=O [temozolomide] |  |  |  |  |  | > 90 mg/kg/dose | 8.5 | 36 | 17.2 | 3.6 | 57 | 12.3 | 7 | 7 | 1.6 to 1.8
